The target in this test is Serine/threonine-protein kinase mTOR (Homo sapiens, UniProt P42345). Description: mTOR Kinase Assay. Conditions: 25 °C.

The text below walks through data of BindingDB's records for doi:10.1021/jm9012642 (Wyeth Research, 2009).

What is called IC50 is the midpoint of a concentration-inhibition curve. A higher IC50 goes with a need for much substance.

In the case of `Oc1cccc(-c2nc(N3CCOCC3)c3cnn(C4CCN(Cc5cccnc5)CC4)c3n2)c1` [JMC527081 Compound 5f], inhibition was half-maximal at 47 nM (IC50).
